From US7153837B2, “Agent for protection of retinal neurons” (Ortho-McNeil Pharmaceutical Inc., priority 2001, dated 2006)

Key:
[1] = system: cultured retinal neurons of rat fetus; assay: glutamate-induced death of cultured retinal neurons of rat fetus (trypan blue exclusion); assay type: cell-based; settings: for Survival rate of cultured retinal neurons (%): 10 min, then 1 h drug-free, untreated 67, glutamate alone 46
Experimental: (1) Topiramate's Action on the Glutamate-Induced Death of Cultured Retinal Neurons of Rat Fetus: From rat fetuses (aged 17 to 19 days), retinal cells were taken out and isolated, and were cultured on a polyethylene-imine-coated plastic-covered slip in a 10% bovine fetal serum-containing Eagle's basal medium for seven days. From the eighth day, they were cultured in a 10% equine serum-containing Eagle's basal medium. On the sixth day of culture, cytosine arabinoside (10 μM) was added to inhibit the proliferation of non-neuronal cells. Next, the cells were incubated (37° C., 5% CO2.95% air) for 10 minutes in a medium which had been prepared by adding glutamate (1 mM) and topiramate in various concentrations (10 nM˜100 μM) to serum-free Eagle's basal medium. Then, cells were returned to serum-free Eagle's basal medium which contained neither glutamate nor topiramate, and were incubated (37° C., 5% CO2.95% air) for one hour, and, thereafter, toxicity was determined by trypan blue exclusion method. In detail, cells were immobilized with 10% neutral formalin solution, and were washed with physiological saline. Then, cells were dyed by adding trypan blue solution, and, thus, the number of cells was counted by phase-contrast microscope. Cells which had been dyed with trypan blue were regarded as dead, and non-dyed cells as surviving, and, thus, the survival rate of cultured cells was found from the proportion of the number of surviving cells to the number of total cells counted (at least 200). The group to which 1 mM of glutamate had been added and the group to which both 1 mM of glutamate and topiramate in various concentrations had been added are respectively called “Single 1 mM glutamate added group” and “1 mM glutamate+topiramate (various concentrations) added group”. Results concerning these groups were compared with the corresponding measured values of “Untreated group”, i.e., a group which had received no treatments. The values in the table are average values.

[2] = system: ischemia-induced retinal damage; assay: ischemia-induced retinal damage in rat (ischemia-reperfusion, retinal histology); assay type: in vivo
Excerpt: (2) Topiramate's Action on Ischemia-Induced Retinal Damage in Rat:
Anesthesia was indued in rat with 3% halothane, and, then, anesthesia was maintained with 1% halothane (halothane was vaporized with 0.5 l oxygen/min. and 1.5 l dinitrogen monoxider/min.). Next, mydriasis was caused in right eye with atropine, and, then, 30 G injection needle which was connected with a vessel of physiological saline for instillation via a tube hung from the ceiling was stuck into anterior chamber, and, thus, a 130 mmHg hydraulic pressure was given, and ischemia was thereby induced After 45 minutes, the injection needle was removed, and retinal blood flow was allowed to make reperfusion. Administration was conducted by intraperitoneal injection into rats with physiological saline (solvent) and topiramate (200 mg/kg body weight) dissolved (partially suspended) in solvent, respectively. The administration was carried out twice respectively, i.e., two hours before and immediately after inschemia. Seven days after the administration, eyeball was taken out, immobilized overnight in 2% paraformaldehyde-2.5% glutaraldehyde, subjected to paraffin embedding, and was sectioned, and, thus, retinal slices (with a thickness of 3 μm) stained with hematoxylin-eosin (HE) were prepared. From eight slices which had been cut with an interval of 60 μm per one eyeball so that optic nerve head might be covered, three slices were optionally selected. With regard to thus selected three slices, there was taken a photograph of retina in the range of 1 to 1.5 mm on the left or right side from optic nerve head, and, thus, the number of cells in ganglion cell layer (GCL) in retina and the thickness of inner plaxiform layer (IPL) were measured. The group to which solvent had been administered and ischemia had been induced and the group to which topiramate dissolved in solvent had been administered and ischemia had been induced are respectively called “Solvent-administered group” and “Topiramate-administered group”. […]

CC1(C)O[C@@H]2[C@@H](CO[C@@]3(COS(N)(=O)=O)OC(C)(C)O[C@@H]23)O1 [topiramate, 2,3:4,5-bis-O-(1-methylethylidene)-β-D-fructopyranose sulfamate]
Survival rate of cultured retinal neurons (%) ([1]; 1 mM glutamate + 10 nM topiramate): 50% | Survival rate of cultured retinal neurons (%) ([1]; 1 mM glutamate + 100 nM topiramate): 58% | Survival rate of cultured retinal neurons (%) ([1]; 1 mM glutamate + 1 μM topiramate): 60% | Survival rate of cultured retinal neurons (%) ([1]; 1 mM glutamate + 10 μM topiramate): 64% | Survival rate of cultured retinal neurons (%) ([1]; 1 mM glutamate + 100 μM topiramate): 65% | effect on death (apoptosis) of cultured retinal neurons ([1]; 1 mM glutamate, topiramate 10 nM-100 μM, summary of Table 1): remarkably inhibit the death (apoptosis) of cultured retinal neurons in a concentration-dependent manner | Thickness of IPL (μm) ([2]; 200 mg/kg intraperitoneal twice (2 h before and immediately after 45 min ischemia), 7 days after, normal 49, solvent 21): 30 μm | Number of cells in GCL (number/mm) ([2]; 200 mg/kg intraperitoneal twice (2 h before and immediately after 45 min ischemia), 7 days after, normal 68, solvent 36): 44 number/mm | effect on decrease of number of cells in ganglion cell layer and thinning of inner plexiform layer ([2]; 200 mg/kg intraperitoneal, summary of Table 2): excellent in effectively preventing both the decrease of number of cells in ganglion cell layer and the thinning of inner plexiform layer
